Data as given in patent US11083725B2 (priority 2014, dated 2021).
“Also recorded” adds a separate entry of the source. Like-named read-outs stand apart in the source and are kept apart here.

Assays:
[1] = test system: CA09; assay: microbe, parasite or virus in culture; type: cell-based, influenza virus H1N1 strain A/CA/04/2009; conditions: for log reduction at 10 pM / log reduction at 0.0001 µM / log reduction at 0.001 µM / log reduction at 0.01 µM / log reduction at 0.1 µM / log reduction at 1 µM / log reduction at 10 µM / log reduction at 100 µM: NHBE, read-out: TCID50 (per mL); for Viral Titer Therapeutic: follow up validation titer, therapeutic treatment
[2] = test system: CA09; assay: High-throughput modified TCID50 viral titer of drug-screen supernatant on MDCK cells (area under the curve); type: cell-based, influenza virus H1N1 strain A/CA/04/2009; conditions: supernatant of CA09-infected NHBE cells titrated on MDCK cells
[3] = test system: NHBE cells; assay: cells; type: cell-based, human
[4] = test system: NHBE cells; assay: Seahorse metabolic flux (ECAR, OCR, PPR) in NHBE cells; type: cell-based, human; conditions: drug 4 hours then infection at 1 MOI with CA04, read 17 hours later
Procedure: OCR and ECAR were measured with the XF-24 Extracellular Flux Analyzer (Seahorse Bioscience, North Billerica, Mass.). Briefly, 2.5×10^5 cells/well were seeded with XF media (non-buffered DMEM with 25 mM glucose, 2 mM L-glutamine, and 1 mM sodium pyruvate) in a Cell-Tak (BD Biosciences, San Jose, Calif.)-coated plate 17 hours after infection and 1 hour before loading the plate into the instrument.
Referring to FIG. 6A-C, NHBE cells were grown and differentiated in 24-well Seahorse plates and left untreated (control), infected for 17 hours at MOI 1 with either viable virus or a […] virus (CA09 or BPL, respectively) or stimulated with TLR agonists lipopolysaccharide (LPS), polyinosinic polycytidylic acid (PolyIC), or Resiquimod (R848). After treatment, the extracellular acidification rate (ECAR) (6A), oxygen consumption rate (OCR) (6B), and proton production rate (PPR) (6C) of NHBE cells were monitored for 2 hours. Error bars represent standard deviation from the mean of triplicate samples, where data represent 3 independent experiments.
Referring to FIG. 12C-E, NHBE cells were seeded in XF24 SEAHORSE cell […] for 4 hours followed by infection at 1 MOI with CA04. 17 hours later plates were processed and read on Seahorse following manufactures protocol.

[5] = test system: cMyc; assay: Influenza-induced cMyc expression in NHBE cells; type: cell-based, human; conditions: NHBE cells infected with CA04 up to 17 hours at MOI 1
Procedure: Referring to FIG. 13B, NHBE cells were infected with CA04 for up to 17 hours at MOI 1, harvested at indicated time and RNA purified from lysates then quantified with […].

[6] = test system: NHBE cells; assay: Seahorse spare respiratory and glycolytic capacity of infected NHBE cells; type: cell-based, human; conditions: 10 nM BEZ235 for 1 hr, infected 17 hours at MOI 1 with CA04
[7] = test system: CA09; assay: In vivo drug tests in CA09-infected mice: weight loss, survival, lung viral titer; design: species or system C57/B6 mice; conditions: for weight loss / survival: mice infected intranasally with CA09; for weight loss: daily drug for 7 days from 2 days before infection (NVP-BEZ235 25 mg/kg oral gavage; clotrimazole 120 mg/kg ip; α-mangostin 8 mg/kg ip); for survival: daily drug for 7 days from 2 days before infection, monitored 15 days
[8] = Blood chemistry and blood cell counts in treated infected mice; type: in vivo, C57/B6 mice; conditions: 25 mg/kg daily oral gavage
Procedure: Referring to FIG. 9A-E, daily drug treatment was started 48 hours before intranasal infection with CA09 at an infectious dose of […] and maintained for 7 days. […] Data represent 3 mice per group.

[9] = test system: PI3K/mTOR pathway; assay: Immunoblot of PI3K/mTOR pathway phosphorylation in infected NHBE cells; type: cell-based, human
[10] = Whole-body plethysmography of respiratory parameters in infected treated mice
[11] = test system: BMDCs; assay: Isotopically labeled substrate utilization in bone marrow-derived dendritic cells; type: cell-based, mouse
[12] = test system: BMDCs; type: cell-based, mouse
[13] = infected mice, whole-body plethysmography

With O=CC[C@@H](O)[C@H](O)[C@H](O)CO [2-deoxyglucose] the “viral titer following therapeutic treatment” value ([1]; FIG. 12B, NHBE supernatant titered on MDCK cells) was “efficient at reducing viral load”, the log reduction at 10 pM [1] was 0.94 and the log reduction at 0.0001 µM [1] was 0.35. For the same molecule, the log reduction at 0.001 µM [1] was 0.48, the log reduction at 0.01 µM [1] was 0.43 and the log reduction at 0.1 µM [1] was 0.28. For the same molecule, the log reduction at 1 µM [1] was 0.87, the log reduction at 10 µM [1] was 1.01 and the log reduction at 100 µM [1] was 0.85. For the same molecule, the “Viral Titer Therapeutic” value [1] was “Reduced”, the “viral titers in the high-throughput screening” value [2] was “reduced” and the “NHBE cell survival / cell death after infection” value (“NHBE cell survival / cell death” for short) [3] was “preferentially killed infected cells”.

For O=C(Nc1cccc(Nc2ncc(Br)c(NCCc3cnc[nH]3)n2)c1)N1CCCC1 [BX-912], the “Viral Titer Therapeutic” value [1] was “Reduced” and the “viral titers in the high-throughput screening” value [2] was “reduced”.

For O=C1Nc2ccc3ncsc3c2/C1=C/c1cnc[nH]1 [Imidazolo-oxindole C 16], the “viral titers in the high-throughput screening” value [2] was “reduced” and the “Cell Death Therapeutic” value [3] was “V > C”.

In the case of Cn1c(=O)n(-c2ccc(C(C)(C)C#N)cc2)c2c3cc(-c4cnc5ccccc5c4)ccc3ncc21 [NVP-BEZ235], the “Viral Titer Prophylactic” value [1] is reported as “Reduced”, the “viral titers in NHBE cells (validated drug hits)” value (shortened to “viral titers in NHBE cells”) [1] is reported as “consistently reduced; also recorded: consistent reduction; also recorded: one of the most significant drops; also recorded: highest efficacy” and the log reduction at 10 pM [1] is reported as 0.75. The log reduction at 0.0001 µM [1] was 0.42, the log reduction at 0.001 µM [1] was 0.5 and the log reduction at 0.01 µM [1] was 0.53. The log reduction at 0.1 µM [1] was 0.29, the log reduction at 1 µM [1] was 0.51 and the log reduction at 10 µM [1] was 0.97. For the same molecule, the log reduction at 100 µM [1] was 0.91, the “viral titers in the high-throughput screening” value [2] was “reduced” and the “influenza induced metabolic flux (ECAR, OCR, PPR)” value [4] was “reverse influenza induced metabolic flux to untreated levels; also recorded: reversed”. For the same molecule, the “influenza-induced cMyc expression” value [5] was “ablates”, the “glycolytic capacity of infected NHBE” value [6] was “slightly reducing; also recorded: slightly reduces” and the “spare respiratory capacity of infected NHBE” value [6] was “restores”. For the same molecule, the “viral titer from the lungs (HA titer)” value ([7]; four days following infection, NVP-BEZ235 25 mg/kg oral gavage, titered on MDCK cells, 25 mg/kg) was “significant reduction; also recorded: significantly lower”, the influenza-induced mortality ([7]; infected adult mice) was “reduces” and the weight loss [7] was “no significant effects; also recorded: no effect”. For the same molecule, the survival [7] was “profound improvement; also recorded: dramatically improved”, the tolerability [8] was “well tolerated” and the blood amylase ([8]; bled on day 7) was “significantly altered”. For the same molecule, the blood protein levels ([8]; bled on day 7) was “unchanged”, the “dehydration as measured by blood electrolyte levels and renal function” value ([8]; bled on day 7) was “stable” and the “immune cell proliferation in the blood” value ([8]; bled on day 7) was “no impact”. The “signs of toxicity in the blood chemistry analysis or in critical blood cell counts” value ([8]; bled on day 7) was “no signs of toxicity”, the “Cell Death Prophylactic” value [3] was “C = V” and the “Cell Death Therapeutic” value [3] was “C > V”. The “NHBE cell survival / cell death” value [3] was “differentially affected; also recorded: differential effects”, the 4E-BP1 phosphorylation [9] was “completely abolished” and the 70S6K phosphorylation [9] was “completely abolished”. For the same molecule, the mTOR phosphorylation [9] was “reduces”, the “phosphorylation of PRAS40” value [9] was “time dependent decrease” and the respiratory function ([10]; infected adult mice) was “augments”. The breath frequency [10, 13] was “decreases”, the expiration time [10, 13] was “increases” and the inspiration time [10, 13] was “increases”. The mid-expiratory tidal flow [10, 13] was “reduction”, the minute volume [10, 13] was “decreases” and the tidal flow [10, 13] was “decreases”.

For COc1c(O)cc2oc3cc(O)c(CC=C(C)C)c(O)c3c(=O)c2c1CC=C(C)C [α-Mangostin], the “viral titers in NHBE cells” value [1] was “consistent reduction”, the log reduction at 10 pM ([1]; Prophylactic Drug Treatment, Drug Dose 10 pM, […]) was 0.74 and the log reduction at 0.0001 µM ([1]; Prophylactic Drug Treatment, Drug Dose 100 pM, […]) was 0.69. It also gave a log reduction at 0.001 µM ([1]; Prophylactic Drug Treatment, Drug Dose 1 nM, […]) of 0.54, a log reduction at 0.01 µM ([1]; Prophylactic Drug Treatment, Drug Dose 10 nM, […]) of 0.65 and a log reduction at 0.1 µM ([1]; Prophylactic Drug Treatment, Drug Dose 100 nM, […]) of 0.84. The log reduction at 1 µM ([1]; Prophylactic Drug Treatment, Drug Dose 1 μM, […]) was 0.71, the log reduction at 10 µM ([1]; Prophylactic Drug Treatment, Drug Dose 10 μM, […]) was 1.2 and the log reduction at 100 µM ([1]; Prophylactic Drug Treatment, Drug Dose 100 μM, […]) was 0.85. For the same molecule, the “Viral Titer Prophylactic” value ([1]; […], prophylactic treatment) was “Reduced”, the “viral titers in NHBE cells” value ([1]; listed as α-mangostin) was “consistently reduced” and the weight loss [7] was “little effect”. The survival [7] was “little effect”, the “Cell Death Prophylactic” value [3] was “C > V” and the “Cell Death Therapeutic” value [3] was “C > V”. For the same molecule, the “NHBE cell survival / cell death” value [3] was “differential effects” and the “NHBE cell survival / cell death” value ([3]; listed as α-mangostin) was “differentially affected”.

In the case of lipopolysaccharide [LPS], the “glycolysis (radiolabeled metabolic substrate assay)” value [11] is reported as “slight increase” and the “other substrate use measures (radiolabeled metabolic substrate assays)” value [11] is reported as “little effect”.

For “polyinosinic polycytidylic acid [PolylC]”, the “all metabolites measured in flux assays” value [12] was “extreme drops”.
